Patent US12297204B2, “5-(substitutedphenyl)-7-thioxo-7,8-dihydropyrimido[4,5-d]pyrimidine-2,4(1H,3H)-dione analogues as antibacterial agents” (KING FAISAL UNIVERSITY, priority 2023, dated 2025)
In brackets after ≈: the same amount, converted by molar mass.

Legend:
[1] = test system: T. atroviridae; test: Antimicrobial activity MIC, T. atroviridae; assay type: cell-based, Trichoderma atroviride
[2] = test system: P. aeruginosa; test: Antimicrobial activity MIC, P. aeruginosa; assay type: cell-based, Pseudomonas aeruginosa (MTCC 424)
[3] = test system: E. coli; test: Antimicrobial activity MIC, E. coli; assay type: cell-based, Escherichia coli (MTCC 443)
[4] = test system: B. subtilis; test: Antimicrobial activity MIC, B. subtilis; assay type: cell-based, Bacillus subtilis (MTCC 441)
[5] = test system: C. albicans; test: Antimicrobial activity MIC, C. albicans; assay type: cell-based, Candida albicans
[6] = test system: P. citrinum; test: Antimicrobial activity MIC, P. citrinum; assay type: cell-based, Penicillium citrinum
[7] = test system: S. aureus; test: Antimicrobial activity MIC, S. aureus; assay type: cell-based, Staphylococcus aureus (MTCC 9660)
[8] = test system: A. flavus; test: Antimicrobial activity MIC, A. flavus; assay type: cell-based, Aspergillus flavus

| Compound | MIC ([1]; T. atroviridae) | MIC ([2]; P. aeruginosa) | MIC ([3]; E. coli) | MIC ([4]; B. subtilis) | MIC ([5]; C. albicans) | MIC ([6]; P. citrinum) | MIC ([7]; S. aureus) | MIC ([8]; A. flavus) | MIC ([1]; Trichoderma atroviride) | MIC ([2]; Pseudomonas aeruginosa) | MIC ([3]; Escherichia coli) | MIC ([4]; Bacillus subtilis) | MIC ([5]; Candida albicans) | MIC ([6]; Penicillium citrinum) | MIC ([7]; Staphylococcus aureus) | MIC ([8]; Aspergillus flavus) |
| --- | --- | --- | --- | --- | --- | --- | --- | --- | --- | --- | --- | --- | --- | --- | --- | --- |
| 5-(4-(Benzyloxy)phenyl)-7-thioxo-7,8-dihydropyrimido[4,5-d]pyrimidine-2,4(1H,3H)-dione [Compound 4b] | 0.01 µM | 0.17 µM | 0.17 µM | 0.17 µM | 0.005 µM | 0.01 µM | 0.34 µM | 0.01 µM | – | – | – | – | – | – | – | – |
| O=c1[nH]c(=O)c2c(-c3cccc(OCc4ccccc4)c3)nc(=S)[nH]c2[nH]1 [Compound 4a, 5-(3-(Benzyloxy)phenyl)-7-thioxo-7,8-dihydropyrimido[4,5-d]pyrimidine-2,4(1H,3H)-dione] | – | – | – | – | – | – | – | – | 0.17 µM (≈ 0.0643 µg/mL) | 0.04 µM (≈ 0.0151 µg/mL) | 0.04 µM (≈ 0.0151 µg/mL) | 0.01 µM (≈ 0.00378 µg/mL) | 0.08 µM (≈ 0.0303 µg/mL) | 0.17 µM (≈ 0.0643 µg/mL) | 0.02 µM (≈ 0.00757 µg/mL) | 0.17 µM (≈ 0.0643 µg/mL) |
| COc1ccc(-c2nc(=S)[nH]c3c2c(=O)n(C)c(=O)n3C)cc1O [Compound 4d, 5-(3-Hydroxy-4-methoxyphenyl)-1,3-dimethyl-7-thioxo-7,8-dihydropyrimido[4,5-d]pyrimid-ine-2,4(1H,3H)-dione] | – | – | – | – | – | – | – | – | 0.37 µM (≈ 0.128 µg/mL) | 0.012 µM (≈ 0.00416 µg/mL) | 0.012 µM (≈ 0.00416 µg/mL) | 0.006 µM (≈ 0.00208 µg/mL) | 0.18 µM (≈ 0.0623 µg/mL) | 0.37 µM (≈ 0.128 µg/mL) | 0.012 µM (≈ 0.00416 µg/mL) | 0.37 µM (≈ 0.128 µg/mL) |
| COc1ccc(-c2nc(=S)[nH]c3[nH]c(=O)[nH]c(=O)c23)cc1O [Compound 4c, 5-(3-Hydroxy-4-methoxyphenyl)-7-thioxo-7,8-dihydropyrimido[4,5-d]pyrimidine-2,4(1H,3H)-dione] | – | – | – | – | – | – | – | – | 0.05 µM (≈ 0.0159 µg/mL) | 0.2 µM (≈ 0.0637 µg/mL) | 0.2 µM (≈ 0.0637 µg/mL) | 0.2 µM (≈ 0.0637 µg/mL) | 0.03 µM (≈ 0.00955 µg/mL) | 0.05 µM (≈ 0.0159 µg/mL) | 0.4 µM (≈ 0.127 µg/mL) | 0.05 µM (≈ 0.0159 µg/mL) |
